pKd: −log10 of the molar value.
What was measured:
[1] = target: alternate RNA stem-loop (Seq III, SEQ ID NO:3); experiment: SPR binding specificity, Seq III
Protocol: (§1) Graphical analysis of Surface Plasmon Resonance (SPR) data was carried out using DeltaGraph (Rockware Inc.). SPR analysis was conducted on a Reichert SR7000 refractometer using Reichert gold sensor slides that consist of a mixed self-assembled monolayer of thiol-PEG-alcohols and thio-PEG-carboxylic acids (˜9:1; PEG=polyethylene glycol). Amine functionalized small molecules were attached by […]/EDC coupling to the carboxy termini of the surface. After activating the monolayer, molecules were covalently attached through the addition of a 1 mg/mL solution of molecule in a sodium acetate buffer (20 mM, pH=5.5). Unreacted activated esters were quenched through the addition of ethanolamine. A flow rate of 10 μL/min and injection volumes of 150 μL was used throughout the experiment. RNA solutions were made to be 15.3 nM, 62.5 nM, 250 nM, 500 nM, 1 μM, 2 μM, 10 μM, and 50 μM. […]
(§2) Specificity was assessed by measuring the affinity of 1-1 to three other oligonucleotides: the DNA sequence homologous to I (Seq II, FIG. 7C, SEQ ID NO:2), the alternate RNA stem-loop (Seq III, FIG. 7D, SEQ ID NO:3) (Karan et al., “RNA-Selective Coordination Complexes Identified via Dynamic Combinatorial Chemistry,” J. Am. Chem. Soc. 123:7455-7456 (2001), which is hereby incorporated by reference in its entirety), and an RNA stem loop with an altered loop sequence (Seq IV, FIG. 7E, SEQ ID NO:4).

[2] = target: RNA stem loop with an altered loop sequence (Seq IV, SEQ ID NO:4); experiment: SPR binding specificity, Seq IV; conditions: read-out: affinity for sequence IV
Protocol: as §1, §2

[3] = test system: HIV-1 frameshift-inducing RNA stem-loop; experiment: Resin-bead fluorescence microscopy screen (RBDCC) with Cy3-labeled RNA; type: binding; conditions: x-y: x resin-bound, y solution phase; 500 nM RNA stem-loop, 72 hours, 50 msec exposure
Protocol: First, as a control, 450 beads (150 of each size, 3 beads/compound, 387 nmol total) were placed in a 1.5 ml solid phase reaction vessel. To this was added a 1 ml solution of 1 μM RNA-Cy3 in phosphate buffer. This solution was agitated for 3 hours on a LabQuake™ rotator. After such time, the solution was drained by vacuum and washed three times with buffer (1 ml, 1 min. each). After washing, the resin was suspended in 2 ml buffer and placed in a Petri dish.
Next, RBDCC experiments were run in quadruplet. […] After such time, the solution was removed from 1 of the 4 experiments and the resin was washed with buffer, plated with 2 ml buffer, and analyzed by fluorescence microscopy as described above. […]
1, 2, and 3 were individually synthesized on TentaGel (0.86 nmol/bead), and equilibrated as described above in separate vessels containing only 1, 2, or 3 solution phase monomers and 500 nM RNA stem-loop, half the concentration used in the initial screen. After 72 hours the resin was washed in a manner identical to the conditions of screen number 4 (i.e., the highest stringency screen) and analyzed by fluorescence microscopy (50 msec. exposure) (see FIGS. 6A-I).

[4] = target: (CUG) repeat RNA SEQ ID NO:7; experiment: Filter binding assay (FBA), SEQ ID NO:7; conditions: negative control; method (FBA or FT) not stated; read-out: KD for CUG repeat RNA (SEQ ID NO:7)
Protocol: A filter binding assay system was utilized to provide a rapid initial assessment of binding affinity. All binding studies were performed in PBS pH 7.2+1 mM MgCl2 at 22° C. Various concentrations of small molecules were incubated with 10 nM FAM-labeled RNA in a total volume of 50 μl for 20 minutes. A slot blot apparatus was then assembled with a wet nitrocellulose filter, on top of a wet nylon filter, on top of filter paper. 40 μl of each binding mixture was then loaded into an individual well of the apparatus and allowed to penetrate the filters for 10 minutes. The peptidic disulfides selected from the DCL efficiently bind to the nitrocellulose filter. In contrast, the FAM-labeled RNA strands penetrate the nitrocellulose filter and are bound by the nylon filter. As such, RNA bound by the peptidic library members remains bound on the nitrocellulose filter, and unbound RNA passes to the nylon filter.
Densitometric analysis of the ratio of labeled RNA on the nitrocellulose to nylon filters allows quantification of binding (FIG. 15A). All binding isotherms were fit to the logistic binding model (Equation 1 above). The repetitive nature of the target sequences may in some cases result in binding stoichiometries that are more complex than a simple 1:1 interaction.
To test specificity and to confirm the determined binding affinities, filter binding assays and fluorescence titrations were performed with SEQ ID NOS: 7-11 (Table 5), and the HIV-1 frameshift stimulating RNA hairpin used in preceding Examples (SEQ ID NO:1, Table 5). Fluorescence titrations were performed using a Varian Cary Eclipse spectrophotometer. 2 μl of 50 or 500 μM small molecule were titrated into 400 μl of FAM labeled RNA sequences an allowed to equilibrate for at least 10 minutes, or until no change in fluorescence spectra was observed. Changes in fluorescence emission at 518 nm (excitation at 490 nm) were measured. Raw data were corrected for dilution dependant changes, and Em518 was plotted against small molecule concentration and fit to the one site binding equation y=(bmaz*x)/(KD+x).) Competition experiments utilizing target RNA (SEQ ID NO:7) and a 20-fold molar excess of total yeast tRNA were performed to measure non-specific RNA binding (Luedtke et al., “RNA-Ligand Interactions: Affinity and Specificity of Aminoglycoside Dimers and Acridine Conjugates to the HIV-1 Rev Response Element,” Biochemistry 42:11391-11403 (2003), which is hereby incorporated by reference in its entirety). Compound 1-1, the HIV-1 RNA ligand, served as a negative control.

CCc1nc2ccccc2cc1C(=O)N[C@@H](CSSC[C@H](NC(=O)c1cc2ccccc2nc1CC)C(=O)N1CCC[C@H]1C(=O)N[C@@H](Cc1ccccc1)C(=O)NCCCN)C(=O)N1CCC[C@H]1C(=O)N[C@@H](Cc1ccccc1)C(=O)NCCCN [dimer 1-1]
affinity for sequence III [1]: no measurable affinity | pKd [2]: < 4.05 | affinity for the RNA stem-loop by bead fluorescence intensity [3]: highest affinity | pKd [4]: < 4.40
